Reference: EP0087397A2, “Propionylglycine derivative, process for its preparation and therapeutic compositions which contain it as the active principle” (Farmatis S.r.l., priority 1982, dated 1983)
Counter-ions that a name gives are not always drawn. Like-named read-outs stand apart in the source and are kept apart here.

How the values were obtained:
Acute toxicity = type: in vivo; conditions: mouse, in vivo, mice, read-out: DL50 (the source's name)
Text: (§1) The acute toxicity determined in mice is shown by the values in Table 5 below: […]

DIFCO gastric mucin = assay: Mucolytic activity on gastric mucin (in vitro, Ostwald viscosimeter); type: biochemical; conditions: for Residual Viscosity in %: 5 minutes at 25°C, average of six readings, % of initial viscosity
Protocol: The mucolytic activity was measured using DIFCO gastric mucin (10 g dissolved in 100 ml of phyaiological solution).
(§2) The mucolytic compounds under test were incubated for 5 minutes at 25°C under constant agitation, mixing 1 ml of aqueous solution of product, having increasing molar quantities of the product being considered, with 10 ml of mucin. The viscosity was measured both before and after incubation, using an Ostwald viscosimeter with 1.5 mm capillaries. […] Each value represents the average of six readings.

[1] = tested on: bronchial hypersecretion induced in rats using S02; assay: In vivo mucolytic activity: bronchial hypersecretion induced by SO2; conditions: for number of rats which developed bronchial obstruction, expressed as a percentage of the animals not protected: oral 0.25 g/kg/die for two weeks, 300 ppm SO2 two hours per day, total 90 hours
Protocol: This was determined by means of bronchial hypersecretion induced in rats using […]. The rats were treated by oral administration of 0.25 g/kg/die of mucolytic product for a period of two weeks, followed by inhalation of 300 ppm of SO2 for two hours per day for a total of 90 hours.

[2] = Mucolytic activity on nonpurulent excreta (in vitro, viscosity); parameters: species or system chronic bronchitis patients; conditions: AC and MP in tamponed solution
Protocol: as §2
Mucolytic activity on nonpurulent excreta The mucolytic activity was measured using a pool of nonpurulent excreta obtained from chronic bronchitis patients. The excreta was diluted 1:1 with a physiological solution and homogenized for three minutes - using a glass homogenizer - and then filtered through gauze and used immediately. The method used here is the same as described in the previous paragraph. In this case, however, the residual viscosity was determined after 5 minutes at 25°C (a) and after 40 minutes at 37°C (b).

aerosol histaminic shock = assay: Antibronchospasmic activity, aerosol histaminic shock; type: in vivo; conditions: for time for the onset of the convulsions: 0.1 g/kg i.p., histamine aerosol two hours after pretreatment
Text: […] The time was taken for the onset of the convulsions after having started administering the aerosol.

carragenin = assay: Antiphlogistic activity, carragenin paw test; type: in vivo, rats; conditions: for ED50: Rattus norvegicus, sc, 3 h
Protocol: This was determined on rats by means of the administration of the product,using an esophagus probe, one hour before making a subcutaneous injection of 0.05 ml of 1% carragenin solution in the right hind paw. After three hours, the volume of the treated paw was compared to the left hind paw, using a plethysmograph.

[3] = tested on: intrabronchial desquamation and reactive hyperplasia of the mucosa; assay: Trophic-protective activity, nebulized CCl4; type: in vivo, rats; conditions: 0.25 g/kg/die orally for ten days, nebulized CCl4, 5 applications of 2 minutes/die
Protocol: This was determined in rats by the administration of 0.25 g/kg/die, orally, of the product for a period of ten days while, contemporaneously, treating with nebulized CCl4 (5 applications of 2 minutes/die).

mice = assay: Acute toxicity; type: in vivo
Text: as §1

rats, rabbits = assay: Fetal toxicity; type: in vivo; conditions: rats 0.1 - 0.5 g/kg/die, 6th to 16th day of gravidity; rabbits 0.1 - 0.3 g/kg/die, 6th to 18th day
Protocol: (§3) The subacute toxicity tests were carried out for 12 weeks on the rats, the chronic toxicity on rats and dogs for 6 months (0.1 - 0.5 g/kg/die) and the fetal toxicity tests were carried out on rats (0.1 - 0.5 g/kg/die between the 6th and 16th days gravidity) and on rabbits (0.1 - 0.3 g/kg/die between the 6th and 18th days of gravidity).

rats and dogs = assay: Subacute and chronic toxicity, gastric probe; type: in vivo; conditions: subacute 12 weeks in rats; chronic 6 months in rats and dogs, 0.1 - 0.5 g/kg/die; statement also covers fetal toxicity tests
Protocol: The subacute toxicity of the new product being practically the same for either case of oral or endovenous administration, the administration was only done by.means of a gastric probe.
as §3

rats = assay: Tolerability at the lung level (surfactant, type II pneumocytes) in rats of the chronic toxicity test; type: in vivo; conditions: at termination of chronic treatment
Text: In order to evaluate the tolerability at the lung level, for the same rats undergoing the chronic toxicity test, a determination of the influence made at the surfactant level was done at the termination of the treatment. A phospholipids analysis was made, obtaining qualitative data by means of TLC chromographic analysis and quantitative data by phosphorous determination. Gas chromographic analysis was made of the fatty acid content in liposomes separated.by centrifuging from the liquid in which the excised lungs had been washed.

[4] = Pharmacokinetics: urinary elimination, titrimetric method; type: in vivo, rats; conditions: for dose excreted at 5 h: rat, urine, 800 mg/kg
Protocol: The pharmcokinetic tests were carried out on rats after having administered 0.8 g/kg of the new product, orally, and using an esophagus probe.
The urinary elimination tests were carried out using the ti- trimetric method. Each sample was treated with an equal volume of 20% HCL, titrating the sulfhydrylic groups with M/100 potassium bromate until the disappearance of the yellow color and calculating the amount of contained new compound (I) by means of a calibrated curve obtained by the same method. The velocity of urinary excretion is maximum within the first two hours after administration. Maximum values obtained after 5 hours amount to about 20% of the amount administered. Administering the same dose (0.8 g/kg) to a rat by means of a rectal suppository of very small dimensions, the cumulative amount in per cent eliminated in the urine within the first five hours is about 12 %.

chronic bronchitis cases = assay: Preliminary clinical tests in chronic bronchitis cases; type: in vivo; conditions: for diminuition of excreta viscosity: 4th-5th day of treatment, cone and plate rotary viscosimeter
Protocol: In the clinical field, preliminary tests were performed with the new compound by giving daily doses of 0.5 g,parenterally, 0.8 g, by aerosol, and 1 g,either orally or rectally, to chronic bronchitis cases. There was a progressive diminuition of excreta viscosity at the 4th-5th day of treatment, 70% in the case of purulent expectoration and 50% in the case of muco- purulent expectoration. The values were measured by means of a cone and plate, rotary viscosimeter. There was an average increase of 20% in vital capacity, 15% in VEMS and a reduction of residual volume of about 20%.
This test proves once more that the new product is well tolerated in comparison with the other compounds having free thiolic action.

[5] = Molar Conc. 0.015, (a) after 5 minutes at 25°C
[6] = Molar Conc. 0.015, (b) after 40 minutes at 37°C
[7] = Molar Conc. 0.03, (a) after 5 minutes at 25°C
[8] = Molar Conc. 0.03, (b) after 40 minutes at 37°C
[9] = Molar Conc. 0.06, (a) after 5 minutes at 25°C
[10] = Molar Conc. 0.06, (b) after 40 minutes at 37°C
[11] = esophagus probe one hour before 0.05 ml 1% carragenin s.c. in right hind paw, paw volume after three hours, read-out: DE50 (the source's name)
[12] = daily 0.5 g parenterally, 0.8 g aerosol or 1 g orally or rectally

Compound | LD50 (Acute toxicity; ip, i.p) | Residual Viscosity in % (DIFCO gastric mucin; Molar Conc. 0.015, 15000 µM) | Residual Viscosity in % (DIFCO gastric mucin; Molar Conc. 0.03, 30000 µM) | Residual Viscosity in % (DIFCO gastric mucin; Molar Conc. 0.06, 60000 µM) | number of rats which developed bronchial obstruction, expressed as a percentage of the animals not protected [1] | Residual Viscosity in % [2, 5] | Residual Viscosity in % [2, 6] | Residual Viscosity in % [2, 7] | Residual Viscosity in % [2, 8] | Residual Viscosity in % [2, 9] | Residual Viscosity in % [2, 10] | time for the onset of the convulsions (aerosol histaminic shock) | ED50 (carragenin; [11]) | prevention of intrabronchial desquamation and reactive hyperplasia of the mucosa [3] | LD50 (Acute toxicity; iv, e.v.) | LD50 (Acute toxicity; po, os) | also measured
CC(=O)N[C@@H](CS)C(=O)O [AC, N-acetylcysteine] | 400 mg/kg | 91% | 86% | 66% | 16% | 87% | 82% | 68% | 62% | 40% | 33% | 210 s | 830 mg/kg | ≤ 50% | – | – | –
CC(=O)Oc1ccccc1C(=O)O [ASA, acetylsalicylic acid] | – | – | – | – | – | – | – | – | – | – | – | – | – | – | – | – | ED50 (carragenin; read-out: DE50): 100 mg/kg
NC(CSCC(=O)O)C(=O)O (stereo not drawn) [CM, S-carboxymetylcystine] | – | – | – | – | 29% | – | – | – | – | – | – | – | – | ≤ 50% | – | – | values lower than those obtained with the MP compound (DIFCO gastric mucin; tests of Tables 1 and 2 (mucin and excreta) repeated, relative to MP): 30%; DE50 (carragenin; esophagus probe one hour before 0.05 ml 1% carragenin s.c. in right hind paw, paw volume after three hours): not measurable
O=C(O)CNC(=O)CCS [MP, beta-mercaptopropionylamidoacetic acid] | – | 88% | 84% | 65% | 16% | 82% | 78% | 63% | 56% | 40% | 31% | 210 s | – | ≤ 50% | – | – | DL50 (mice; e.v.): 3.10 g/kg; DL50 (mice; i.p): 1.54 g/kg; DL50 (mice; os): 3.20 g/kg; DE50 (carragenin; esophagus probe one hour before 0.05 ml 1% carragenin s.c. in right hind paw, paw volume after three hours, 180 min): 785 mg/kg
CC(S)C(=O)NCC(=O)O (stereo not drawn) [MP/A, alpha-mercaptopropionylamidoacetic acid] | 1280 mg/kg | – | – | – | 14.5% | – | – | – | – | – | – | 200 s | 780 mg/kg | ≤ 50% | 2240 mg/kg | 2190 mg/kg | values obtained compared with the beta isomer (MP) (DIFCO gastric mucin; tests of Tables 1 and 2 (mucin and excreta) repeated): substantially the same as those obtained with the beta isomer (MP)
O=C(O)CNC(=O)CCS [MPCa, calcium salt of beta-mercapto propionylamidoacetic acid] | 1710 mg/kg | 83% | 75% | 59% | 12.5% | 76% | 71% | 44% | 36% | 32% | 24% | 250 s | 650 mg/kg | – | 3470 mg/kg | 3510 mg/kg | persistence of the -SE groups in the cells of the bronchial mucosa ([1]; D.D.D. coloration): almost complete persistence; reduction of calyciform hyperplasia ([1]; bronchial mucosa, P.A.S. coloration, less than control group): 40%; number of muciparous cells ([1]; bronchial mucosa, histological and histochemical tests): significant reduction; effects on the mothers and on the characteristics of the offspring (rats, rabbits): no negative effects; tolerability (rats and dogs): Very good tolerability; increase of time for the onset of the convulsions (aerosol histaminic shock; 48 hours after administration): 30%; surfactant level (phospholipids, fatty acid content) compared with the control group (rats): No significant differences; dose excreted at 5 h ([4]; po, rats, 0.8 g/kg orally, after 5 hours, read-out: urinary elimination, % of the amount administered): ~20%; time of maximum velocity of urinary excretion ([4]; rats, 0.8 g/kg orally): two; dose excreted at 5 h ([4]; 0.8 g/kg rectal suppository, within the first five hours, read-out: cumulative amount in per cent eliminated in the urine): ~12%; prevention of intrabronchial desquamation and reactive hyperplasia of the mucosa ([3]; listed as The new compound): 65%; bronchospasmic manifestations (chronic bronchitis cases; aerosol treatment, plethysmograph in broncholabile patients): no bronchospasmic manifestations were observed; average increase in VEMS (chronic bronchitis cases; [12]): 15%; average increase in vital capacity (chronic bronchitis cases; [12]): 20%; reduction of residual volume (chronic bronchitis cases; [12]): about 20%; diminuition of excreta viscosity (chronic bronchitis cases; muco-purulent expectoration): 50%; diminuition of excreta viscosity (chronic bronchitis cases; purulent expectoration): 70%
